Reference: patent publication US20220125839A1, “COMBINATION OF T-CELL THERAPY AND TARGETED THERAPY FOR TREATING THERAPY-RESISTANT MELANOMA WITH MUTATIONS IN THE BRAF GENE” (H. LEE MOFFITT CANCER CENTER AND RESEARCH INSTITUTE, INC., priority 2019, published 2022)

Experiments:
[1] = test system: M6PR; assay: IHC staining of M6PR in WM35 tumors in NOD/SCID mice; format: in vivo; details: for tumor M6PR levels by immunohistochemistry: 50 mg/kg oral gavage
Procedure: In order to establish xenograft models, cultured WM35, WM35-BR, WM983B-BR-pAHygCMV2 and WM983B-BR-M6PR/IGF2R cells were harvested, suspended in sterile PBS, mixed in 2:1 ratio with Matrigel and injected subcutaneously into the left flank of mice (1-3×10^6 cells per mouse). PLX4720 was administered daily at dose 50 mg/kg for 10 days via oral gavage. As a control, mice treated with vehicle alone (2% DMSO, 50% PEG 300, 5% Tween 80) were used. Treatments were started when tumors were 0.5-0.8 cm in diameter.
Tumor tissues were harvested, fixed overnight with 4% paraformaldehyde (Electron Microscopy Science; Cat. no. 15710) at 4° C., embedded in paraffin blocks and 4-5 μm thick sections of the tissue were prepared and stained with polyclonal goat M6PR/IGF2R primary antibody (R&D Systems; Cat. no. AF2447; 5 μg/mL per samples) O/N at 4° C. Biotinylated 2nd antibody in 1:200 dilution was used for 30 min at RT followed by application of ABC solution ([…] and biotinylated horseradish peroxidase) for 30 min at RT. DAB 0.05% solution was applied for 3-4 min at RT. Hematoxylin was used for counterstaining the nucleus. Images were analyzed using Nis-Elements Ar (Advanced Research) Nikon 80i Upright Microscope with 40×N.A. objective. Each slide was scanned, images were manually captured at separate X, Y locations and a multipoint ND document was created point by point. A threshold value was defined for each image (for brown M6PR staining) using the single point selection tool. Results were exported to Excel for further analysis. (Acquisition Software: Nikon NIS-Elements Br (Basic research) 4.0, Camera Name: DS-Ri1-U3 40× Objective, Numerical Aperture: 0.95, Camera Settings: Format: 1280×1024 Fine, Exposure: ME 80 ms (−+0.0 EV))
Since hypoxia is an important component of the tumor microenvironment, we evaluated the effect of hypoxia on PLX4720-induced M6PR up-regulation. WM983B melanoma cells were exposed to 0.5% 02 during PLX4720 treatment. […] To understand the effect of PLX4720 on M6PR expression in vivo, WM35 tumor cells were injected s.c. into immune deficient NOD/SCID mice. When tumors reached 0.5-0.8 cm in diameter, mice were treated with vehicle or 50 mg/kg PLX4720 by oral gavage for 3 or 5 consecutive days.

[2] = test system: WM983B-M6PR-KO cells; assay: Granzyme B (GrzB) uptake by WM983B-M6PR-KO cells; format: cell-based, human; details: WM983B-M6PR-KO (absence of M6PR); overnight, then inactive GrzB 1 hour
Procedure: Cells were then stained with Aqua dead cell staining kit (Thermo Fischer Scientific) for 15 min at 4° C. fixed in fixation buffer (BD Cytofix/Cytoperm; Cat. no. 51-2090). Granzyme B antibody (Cat. no. 561142) or its isotype control (BD Bioscience; Cat. no. 555749) were used. Stained cells were run on LSR14. Data was analyzed by FlowJo software (Tree Star).
To investigate if M6PR has a direct role in the increased uptake of GrzB induced by PLX4720, we generated a WM983B-M6PR-KO cell line lacking M6PR expression, using Crispr/Cas9 technology. Deletion of M6PR was confirmed by western blotting (FIG. 8A) and flow cytometry (FIG. 8B). WM983B and WM983B-M6PR-KO cells were cultured with DMSO or different concentrations of PLX4720. […] To test the sensitivity of WM983B cells to CTLs, we expanded TILs isolated from a HLA-A1+ patient with metastatic melanoma. These TILs recognized HLA-A1+WM983B cells. As targets, we used WM983B and WM983B-M6PR-KO cells. […] BRAFi sensitive and resistant WM983B cells were recognized by CTLs equally well (FIG. 8E). […] Herein was asked whether manipulation with expression of M6PR could affect expression of molecules associated with antigen presentation and regulation of immune responses by tumor cells. We evaluated expression of MHC class I, MHC class II, PDL1, and FasL on tumor cells with overexpression or deletion of M6PR.

[3] = test system: WM983B-M6PR-KO cells; assay: CTL assay (51Cr release), WM983B-M6PR-KO targets with TILs; format: cell-based, human; details: WM983B-M6PR-KO treated ON with PLX4720
Procedure: (§1) For Chromium (^51Cr) release assays, 1×10^6 human melanoma cells were incubated with 100 μCi ^51Cr (Perkin-Elmer; Cat. no. NEZ030S001MC; 1 mCi/mL) at 37° C. for 60 minutes, washed 3 times with sterile PBS and plated into 96-well round-bottom plates at a cell density of 1×10^4 tumor target cells/well. Target cells were incubated with human CD8+ TILs in triplicates at the indicated effector/target ([…]) ratios in 200 μl culture medium at 37° C. in a humidified CO2 incubator. After incubation, plates were centrifuged, 50 μl supernatant was harvested from each well and ^51Cr release was measured using a gamma counter. The percent specific lysis was calculated as follows: 100×[(experimental release−spontaneous release)/(maximum release−spontaneous release)]. As controls, T cells isolated from blood of healthy donor were used.
(§2) To investigate if M6PR has a direct role in the increased uptake of GrzB induced by PLX4720, we generated a WM983B-M6PR-KO cell line lacking M6PR expression, using Crispr/Cas9 technology. Deletion of M6PR was confirmed by western blotting (FIG. 8A) and flow cytometry (FIG. 8B). WM983B and WM983B-M6PR-KO cells were cultured with DMSO or different concentrations of PLX4720. […] We evaluated expression of MHC class I, MHC class II, PDL1, and FasL on tumor cells with overexpression or deletion of M6PR.

[4] = test system: WM983B cells; assay: CTL assay (51Cr release), WM983B targets with HLA-A1+ TILs; format: cell-based, human; details: WM983B treated ON with PLX4720
Procedure: as §1, §2

[5] = test system: M6PR; assay: Cell surface M6PR expression by flow cytometry in PLX4720-resistant WM35-BR cells; format: cell-based, human; details: 1 μM or 10 μM PLX4720
Procedure: WM35 human melanoma and HLA-matched human tumor infiltrating lymphocytes (TIL) were generated at H. Lee Moffitt Cancer Center and Research Institute, Tampa, Fla., USA). Human melanoma cells lines WM983B and WM983B-BR were maintained in Dulbecco's Modified Eagles medium (DMEM) (Gibco), other human melanoma cell lines were maintained in RPMI medium supplemented with 10% fetal bovine serum (FBS, Sigma-Aldrich, St. Louis, Mo.) and 1% Pen/Strep (Corning; Cat. no. 30-002-Cl) at 37° C., 5% CO2. PLX4720-resistant cells were kept in cell culture media supplemented with 1 μM PLX4720 to keep these cells resistant against the drug. 350 μg/mL Hygromycin B (Invitrogen; Cat. no. 10687010) was kept in the culture media of WM983B-BR-pAHygCMV2, WM983B-BR-M6PR/IGF2R, WM35-pAHygCMV2, WM35-M6PR/IGF2R cells after transfection. […]
M6PR expression levels were detected by flow cytometry. […] Data was analyzed by FlowJo software (Tree Star).
(§3) To maintain consistency with the results obtained on sensitive cell lines and to better assess the effect of BRAFi on the sensitivity of tumor cells to CTLs, we generated an additional BRAFi resistant cell line WM35-BR by exposing WM35 cells to increased concentrations of PLX4720. Resistant cell lines (WM983B-BR and WM35-BR) were treated with 1 μM or 10 μM PLX4720 for different times, and cell surface M6PR levels were determined by flow cytometry.

[6] = test system: M6PR; assay: Cell surface M6PR expression by flow cytometry in PLX4720-resistant WM983B-BR cells; format: cell-based, human
Procedure: WM35 human melanoma and HLA-matched human tumor infiltrating lymphocytes (TIL) were generated at H. Lee Moffitt Cancer Center and Research Institute, Tampa, Fla., USA). Human melanoma cells lines WM983B and WM983B-BR were maintained in Dulbecco's Modified Eagles medium (DMEM) (Gibco), other human melanoma cell lines were maintained in RPMI medium supplemented with 10% fetal bovine serum (FBS, Sigma-Aldrich, St. Louis, Mo.) and 1% Pen/Strep (Corning; Cat. no. 30-002-Cl) at 37° C., 5% CO2. PLX4720-resistant cells were kept in cell culture media supplemented with 1 μM PLX4720 to keep these cells resistant against the drug. 350 μg/mL Hygromycin B (Invitrogen; Cat. no. 10687010) was kept in the culture media of WM983B-BR-pAHygCMV2, WM983B-BR-M6PR/IGF2R, WM35-pAHygCMV2, WM35-M6PR/IGF2R cells after transfection. Tumor cell lines were tested for mycoplasma contamination by using Universal Mycoplasma detection kit (ATCC) regularly. Human melanoma cells were treated with 1-10 μM PLX4720 (Selleckchem; Cat. no. S1152), 25-100 nmol/mL (nM) Trametinib (Selleckchem; Cat. no. S2673). Hypoxia (0.5% 02) was maintained using hypoxic chamber (BioSpherix).
M6PR expression levels were detected by flow cytometry. […] Cells were fixed using 1% paraformaldehyde for 20 minutes at 4° C. before running them on LSR14. Data was analyzed by FlowJo software (Tree Star).
as §3

[7] = test system: WM35-BR cells; assay: CTL assay (51Cr release), WM35-BR targets with HLA-matched TIL; format: cell-based, human; details: overnight treatment
Procedure: For Chromium (^51Cr) release assays, 1×10^6 human melanoma cells were incubated with 100 μCi ^51Cr (Perkin-Elmer; Cat. no. NEZ030S001MC; 1 mCi/mL) at 37° C. for 60 minutes, washed 3 times with sterile PBS and plated into 96-well round-bottom plates at a cell density of 1×10^4 tumor target cells/well. Target cells were incubated with human CD8+ TILs in triplicates at the indicated effector/target (E) ratios in 200 μl culture medium at 37° C. in a humidified CO2 incubator. After incubation, plates were centrifuged, 50 μl supernatant was harvested from each well and ^51Cr release was measured using a gamma counter. The percent specific lysis was calculated as follows: 100×[(experimental release−spontaneous release)/(maximum release−spontaneous release)]. As controls, T cells isolated from blood of healthy donor were used.

CCCS(=O)(=O)Nc1ccc(F)c(C(=O)c2c[nH]c3ncc(Cl)cc23)c1F [PLX4720]
tumor M6PR levels by immunohistochemistry ([1]; 3 days after start of the treatment): significant increase in tumor M6PR levels
tumor M6PR levels by immunohistochemistry ([1]; 5 days after start (2 days later)): further increased
tumor M6PR expression after finish of the treatment ([1]; 3 days after finish of the treatment): remained high
tumor M6PR expression after finish of the treatment ([1]; day 6 after finish): slight decrease
tumor M6PR expression after finish of the treatment ([1]; day 9 after finishing the treatment): returned to the pretreatment level
PLX4720-inducible GrzB uptake [2]: up-regulation of GrzB uptake was abrogated
killing of tumor cells by TILs [3]: this effect was not observed
killing of tumor cells by TILs [4]: significantly (p<0.05) increased killing
M6PR on the cell surface [5]: further substantial up-regulation of MP6R on the cell surface
M6PR expression under hypoxia ([6]; BRAF resistant cells (WM983B-BR), hypoxia): increased M6PR expression
M6PR on the cell surface ([6]; WM983B-BR, 1 μM or 10 μM PLX4720): further substantial up-regulation of MP6R on the cell surface
M6PR levels after 24 hours of treatment ([6]; WM983B-BR, 24 hours): did not decrease to pre-treatment levels
sensitivity of tumor cells to TIL in cytotoxicity assay [7]: increased sensitivity of tumor cells to TIL
